Results reported in patent US20240002379A1, “ASYMMETRIC CONJUGATE COMPOUNDS” (Pheon Therapeutics Ltd., priority 2016, published 2024).

Experiments:
Assay type in all cases: cell-based
Settings in all cases: MTT assay, 72 hour incubation
[1] = system: SW48 cell line; experiment: MTT cytotoxicity assay, SW48
Protocol: (§1) Tumor cell lines were maintained in RPMI1640 medium supplemented with 10% heat-inactivated fetal bovine serum, 2 mM L-glutamine and 1 mM sodium pyruvate. 1800 cells per well were seeded in a volume of 180 μl in a 96-well flat bottom polystyrene plate. The cells were allowed to adhere overnight at 37° C. in a CO2 incubator. Ligands were initially formulated in DMSO, and stocks stored at −80° C. They were then further formulated at lox concentration in RPMI1640 medium. 20 ul of diluted samples were added into each treatment well. On each plate, blank wells with no cells, and untreated wells containing cells, were included. Plates were then cultured at 37° C. in a CO2 incubator for 72 hrs. Cytotoxicity was evaluated using a tetrazolium salt-based assay, the MTT assay. After 72 hours, the supernatant was removed from each well and 200 μl of a sterile filtered 500 μg/ml MTT solution in water added to each well. The plates were then incubated at 37° C. in a CO2 incubator for 4 hrs. The supernatant was then removed and the formazan crystals formed solubilized by adding 150 μl of DMSO to each well. The plate was then read on a plate reader at 540 nm, and percentage cell survival calculated as follows: ((mean absorbance treated wells at concentration x−mean absorbance blank wells)[…](mean absorbance untreated wells at concentration x−mean absorbance blank wells))×100. Data were plotted as concentration in nM vs. % cell survival in Microsoft Excel, and IC50 values (concentration where cell survival is reduced by a half) were determined from the graph.

[2] = system: LIM1215 cell line; experiment: MTT cytotoxicity assay, LIM1215
Protocol: as §1

[3] = system: SW620 cell line; experiment: MTT cytotoxicity assay, SW620
Protocol: as §1

COc1cc2c(cc1OCc1cccc(CC(=O)N3C[C@@H](C)c4c3cc(O)c3ccccc43)c1)NC(=O)[C@@H]1CCCCN1C2=O [Compound 143, (S)-3-((3-(2-((S)-5-Hydroxy-1-methyl-1,2-dihydro-3H-benzo[e]indol-3-yl)-2-oxoethyl)benzyl)oxy)-2-methoxy-7,8,9,10-tetrahydrobenzo[e]pyrido[1,2-a][1,4]diazepine-6,12(5H,6aH)-dione]
Not active: Cytotoxicity SW48 (72 hrs) [1] | Cytotoxicity LIM1215 (72 hours) [2] | Cytotoxicity SW620 (72 hours) [3]
